Results: publication PMC9643456, “Matching amino acids membrane preference profile to improve activity of antimicrobial peptides” (Communications Biology, 2022)
Converted amounts (≈) assume the structure as drawn. Square brackets hold non-standard residues; d marks the D form. Peptide text beside a SMILES is read from it.

What was measured:
human red blood cells = experiment: Hemolytic activity; format: cell-based; settings: red cells of human, 18 h
Method: Human red blood cells (Zenbio, North Carolina, USA) and peptides were separately diluted in PBS (blood concentration, 8%). The blood cell and peptide solutions were then mixed in 96-well polyethylene plates (SPL, Gyeonggi-do, Korea) and incubated for 18 h at 37 °C. The final concentration of human red blood cells was 4%, while peptide concentrations were 100 μM, 50 μM, 25 μM, 12.5 μM, 6.25 μM, 3.13 μM, 1.56 μM, and 0.78 μM. After incubation, the plates were centrifuged at 1000 × g for 5 min, and the supernatants were transferred to 96-well polyethylene plates. Hemolysis levels were determined by measuring the absorbance at 540 nm with a SpectraMax plate spectrophotometer (Molecular Devices, California, USA). Control samples were treated with 1% Triton X-100 (for 100% hemolysis) or solution with 0 μM peptide (for 0% hemolysis) and melittin (for positive control). Each experiment was performed in triplicate.

MDR A. baumannii = experiment: microbe, parasite or virus in culture; settings: CLSI broth microdilution; CAMHB with 50 mg/L Ca2+, 10 mg/L Mg2+; 5 × 10^5 CFU/ml; 18 h 37 °C; triplicate; strain ATCC BAA-1605
From the text: (§1) MDR Pseudomonas aeruginosa (CCARM 2180) was purchased from the Culture Collection of Antimicrobial Resistance Microbes (Seoul, Republic of Korea). MDR Acinetobacter baumannii (ATCC BAA-1605) and MDR Enterococcus faecalis (ATCC 51575) were purchased from the American Type Culture Collection (Manassas, VA, USA). MDR Staphylococcus aureus (KCCM 40510) was purchased from the Korean Culture Center of Microorganisms (Seoul, Republic of Korea). S. aureus (KCTC 1621) was purchased from the Korean Collection for Type Cultures. A. baumannii (KCCM 40203) was purchased from the Korean Culture Center of Microorganisms (Seoul, Republic of Korea).
(§2) To assess antimicrobial activity, the MIC50 and MIC90 were measured using broth microdilution following CLSI guidelines. […] Each experiment was performed in triplicate. Meropenem (Sigma, Darmstadt, Germany) and colistin were used as control antibiotics. Cation-adjusted Mueller–Hinton broth (CAMHB) (Becton, Dickinson and Company, Franklin Lakes, USA) with supplied calcium (50 mg/L) and magnesium (10 mg/L) was used for the CLSI-test condition. Bacteria in midlog phase and peptides were separately diluted in CAMHB. The bacteria and peptide solutions were then mixed in 96-well polyethylene plates (SPL, Gyeonggi-do, Korea) and incubated for 18 h at 37 °C. The final concentration for bacteria was 5 × 10^5 CFU/ml. […] The MIC was defined to be the lowest concentration of peptide without visible turbidity by comparing with control antibiotics with the unaided eye. […] Each experiment was performed in triplicate. MICs in albumin and acetic acid solutions were measured using the same protocol but with 0.2% bovine serum albumin (Bovogen, Keilor, Australia), 0.01% acetic acid (Merck, New Jersey, USA), and CAMHB with both calcium and magnesium. In addition, MICs used in the antibiotic resistance acquisition test, the outer–inner membrane permeation test, and the transmembrane potential test and for FE-SEM were individually determined. The final bacterial concentrations used were as follows: for resistance acquisition, optical density (OD) 0.01; for outer–inner membrane permeability assays (LB), OD 0.1; for the transmembrane potential test, 1 × 10^8 CFU/ml (OD 0.171); […]. Inhibitory activity unidentifiable by direct observation was determined by counting the CFUs. Each experiment was performed at least twice.

MDR S. aureus = experiment: microbe, parasite or virus in culture; settings: CLSI broth microdilution; CAMHB with 50 mg/L Ca2+, 10 mg/L Mg2+; 5 × 10^5 CFU/ml; 18 h 37 °C; triplicate; strain KCCM 40510
From the text: as §1, §2

Structure (SMILES)	Hemolysis percent, 25 μM (human red blood cells) [%]	Hemolysis percent, 50 μM (human red blood cells) [%]	Hemolysis percent, 100 μM (human red blood cells) [%]	Minimum inhibitory concentrations, MDR A. baumannii (MDR A. baumannii) [µM]	Minimum inhibitory concentrations, MDR S. aureus (MDR S. aureus) [µM]
CC(C)C[C@@H](NC(=O)[C@H](N)Cc1c[nH]c2ccccc12)C(=O)N[C@@H](C(=O)N[C@H](Cc1c[nH]c2ccccc12)C(=O)N[C@H](CCCCN)C(=O)N[C@H](Cc1c[nH]c2ccccc12)C(=O)N[C@H](CCCNC(=N)N)C(=O)N[C@H](CCCNC(=N)N)C(=O)N[C@H](CCCNC(=N)N)C(N)=O)C(C)C [WCopW37] (H-[dW][dL][dV][dW][dK][dW][dR][dR][dR]-NH2)	0.13 ±0.02	0.08 ±0.01	0.16 ±0.03	2.5 (≈ 3.46 µg/mL)	5 (≈ 6.92 µg/mL)
CC[C@@H](C)[C@@H](NC(=O)[C@@H](Cc1c[nH]c2ccccc12)NC(=O)[C@H](NC(=O)[C@@H](CC(C)C)NC(=O)[C@H](N)Cc1c[nH]c2ccccc12)C(C)C)C(=O)N[C@H](Cc1ccc(O)cc1)C(=O)N[C@H](CC(C)C)C(=O)N[C@H](CCCNC(=N)N)C(=O)N[C@H](CCCCN)C(=O)N[C@H](CCCCN)C(=O)N[C@H](CCCNC(=N)N)C(N)=O [WCopWVY] (H-[dW][dL][dV][dW][dI][dY][dL][dR][dK][dK][dR]-NH2)	2.47	4.51	7.25		
CC[C@@H](C)[C@@H](NC(=O)[C@@H](Cc1c[nH]c2ccccc12)NC(=O)[C@@H](CC(C)C)NC(=O)[C@H](N)CC(C)C)C(=O)N[C@H](C)C(=O)N[C@H](CC(C)C)C(=O)N[C@H](CCCCN)C(=O)N[C@H](CCCCN)C(=O)N[C@H](CCCCN)C(=O)N[C@H](CCCCN)C(N)=O [WCopW12] (H-[dL][dL][dW][dI][dA][dL][dK][dK][dK][dK]-NH2)	0.98	0.98	0.98		
CC[C@@H](C)[C@@H](NC(=O)[C@@H](Cc1c[nH]c2ccccc12)NC(=O)[C@@H](CC(C)C)NC(=O)[C@@H](CC(C)C)NC(=O)[C@H](N)Cc1c[nH]c2ccccc12)C(=O)N[C@H](C)C(=O)N[C@H](CC(C)C)C(=O)N[C@H](CCCNC(=N)N)C(=O)N[C@H](CCCCN)C(=O)N[C@H](CCCCN)C(N)=O [WCopW7] (H-[dW][dL][dL][dW][dI][dA][dL][dR][dK][dK]-NH2)	7.25	10.05	14.99		
CC(C)[C@@H](NC(=O)[C@H](N)Cc1c[nH]c2ccccc12)C(=O)N[C@@H](C(=O)N[C@H](Cc1c[nH]c2ccccc12)C(=O)N[C@@H](C(=O)N[C@H](Cc1c[nH]c2ccccc12)C(=O)N[C@H](CCCNC(=N)N)C(=O)N[C@H](CCCNC(=N)N)C(=O)N[C@H](CCCNC(=N)N)C(N)=O)C(C)C)C(C)C [WCopW40] (H-[dW][dV][dV][dW][dV][dW][dR][dR][dR]-NH2)	0.45	0.59	2.14		
CC[C@@H](C)[C@@H](NC(=O)[C@@H](Cc1c[nH]c2ccccc12)NC(=O)[C@H](NC(=O)[C@@H](CC(C)C)NC(=O)[C@H](N)Cc1c[nH]c2ccccc12)C(C)C)C(=O)N[C@H](Cc1ccc(O)cc1)C(=O)N[C@H](CCCNC(=N)N)C(=O)N[C@H](CCCCN)C(=O)N[C@H](CCCCN)C(=O)N[C@H](CCCNC(=N)N)C(N)=O [WCopWVY4] (H-[dW][dL][dV][dW][dI][dY][dR][dK][dK][dR]-NH2)	1.86	2.57	5.57		
CC[C@@H](C)[C@@H](NC(=O)[C@@H](Cc1c[nH]c2ccccc12)NC(=O)[C@@H](Cc1ccc(O)cc1)NC(=O)[C@@H](CC(C)C)NC(=O)[C@H](N)Cc1c[nH]c2ccccc12)C(=O)N[C@H](CC(C)C)C(=O)N[C@H](CC(C)C)C(=O)N[C@H](CCCNC(=N)N)C(=O)N[C@H](CCCCN)C(=O)N[C@H](CCCCN)C(=O)N[C@H](CCCNC(=N)N)C(N)=O [WCopWYL] (H-[dW][dL][dY][dW][dI][dL][dL][dR][dK][dK][dR]-NH2)	2.50	6.29	9.62		
CC[C@@H](C)[C@@H](NC(=O)[C@@H](Cc1c[nH]c2ccccc12)NC(=O)[C@H](NC(=O)[C@@H](CC(C)C)NC(=O)[C@H](N)Cc1c[nH]c2ccccc12)C(C)C)C(=O)N[C@H](Cc1ccc(O)cc1)C(=O)N[C@@H](C(=O)N[C@H](CCCNC(=N)N)C(=O)N[C@H](CCCCN)C(=O)N[C@H](CCCCN)C(=O)N[C@H](CCCNC(=N)N)C(N)=O)C(C)C [WCopWVY3] (H-[dW][dL][dV][dW][dI][dY][dV][dR][dK][dK][dR]-NH2)	1.92	5.67	7.01		
CC(C)[C@@H](NC(=O)[C@H](N)Cc1c[nH]c2ccccc12)C(=O)N[C@@H](C(=O)N[C@@H](C(=O)N[C@@H](C(=O)N[C@H](Cc1c[nH]c2ccccc12)C(=O)N[C@H](CCCNC(=N)N)C(=O)N[C@H](CCCNC(=N)N)C(=O)N[C@H](CCCNC(=N)N)C(N)=O)C(C)C)C(C)C)C(C)C [WCopW44] (H-[dW][dV][dV][dV][dV][dW][dR][dR][dR]-NH2)	0.11 ±0.03	0.87 ±0.36	4.48 ±1.01	2.5 (≈ 3.14 µg/mL)	1.25 (≈ 1.57 µg/mL)
CC[C@@H](C)[C@@H](NC(=O)[C@@H](Cc1c[nH]c2ccccc12)NC(=O)[C@H](NC(=O)[C@@H](CC(C)C)NC(=O)[C@H](N)Cc1c[nH]c2ccccc12)C(C)C)C(=O)N[C@H](Cc1c[nH]c2ccccc12)C(=O)N[C@H](CCC(N)=O)C(=O)N[C@H](CCCNC(=N)N)C(=O)N[C@H](CCCNC(=N)N)C(=O)N[C@H](CCCNC(=N)N)C(N)=O [WCopW30] (H-[dW][dL][dV][dW][dI][dW][dQ][dR][dR][dR]-NH2)	0.32	2.74	4.92		
CC[C@@H](C)[C@@H](NC(=O)[C@@H](Cc1c[nH]c2ccccc12)NC(=O)[C@@H](CC(C)C)NC(=O)[C@H](N)CC(C)C)C(=O)N[C@H](C)C(=O)N[C@H](CC(C)C)C(=O)N[C@H](CCCNC(=N)N)C(=O)N[C@H](CCCCN)C(=O)N[C@H](CCCCN)C(=O)N[C@H](CCCNC(=N)N)C(N)=O [WCopW11] (H-[dL][dL][dW][dI][dA][dL][dR][dK][dK][dR]-NH2)	0.94	1.02	1.08		
CC[C@@H](C)[C@@H](NC(=O)[C@@H](Cc1c[nH]c2ccccc12)NC(=O)[C@H](NC(=O)[C@@H](CC(C)C)NC(=O)[C@@H](Cc1c[nH]c2ccccc12)NC(=O)[C@H](N)CC(=O)O)C(C)C)C(=O)N[C@H](Cc1c[nH]c2ccccc12)C(=O)N[C@H](CCCNC(=N)N)C(=O)N[C@H](CCCNC(=N)N)C(=O)N[C@H](CCCNC(=N)N)C(N)=O [WCopW36] (H-[dD][dW][dL][dV][dW][dI][dW][dR][dR][dR]-NH2)	4.03 ±0.40	7.48 ±0.90	9.86 ±1.62		1.25 (≈ 1.86 µg/mL)
CC[C@@H](C)[C@@H](NC(=O)[C@@H](Cc1c[nH]c2ccccc12)NC(=O)[C@H](NC(=O)[C@@H](CC(C)C)NC(=O)[C@H](N)Cc1c[nH]c2ccccc12)C(C)C)C(=O)N[C@H](Cc1c[nH]c2ccccc12)C(=O)N[C@H](CCCNC(=N)N)C(=O)N[C@H](CCCNC(=N)N)C(=O)N[C@H](CCCCN)C(=O)N[C@H](CCCNC(=N)N)C(N)=O [WCopW28] (H-[dW][dL][dV][dW][dI][dW][dR][dR][dK][dR]-NH2)	2.33	1.97	5.26		
